Assays:
skin blood circulation = test: Change of skin blood circulation after injection of vasoconstrictors under the skin; format: in vivo; details: injected under the skin of human individuals, by GC(-909/-908)TT genotype
Experimental: As an example for the general usability of the GNAQ GC(−909/−908)TT polymorphism to predict drug actions, the vasoconstrictors angiotensin II, noradrenaline or endothelin were injected under the skin of human individuals, and the following change of blood circulation was recorded (FIG. 18).

GNAQ promoter = test: SEAP reporter assay of GNAQ promoter construct -798/+89 (GC or TT genotype) in stimulated HEK cells; format: cell-based, human; details: construct -798/+89, stimulation with 10 nM angiotensin II, p<0.05
Text: For functional detection of a modified promoter activity in relation to specific genotypes, various fragments of the promoter with the GC or the TT genotype were cloned into the pSEAP vector to quantify the promoter activity after expression of the vector in HEK cells in a so-called reporter assay (FIG. 5). For this assay, constructs are cloned before a gene encoding the secreted alkaline phosphatase (SEAP). If the construct has promoter activity, the SEAP gene will be transcribed more, and the increased secretion of alkaline phosphatase into the cell culture medium can be measured. […] Since the polymorphism is located in this region (−697/−695 relative from the transcription starting point) showing the highest reporter activity, and furthermore a transcription factor binding site is influenced by the nucleic acid exchange, it is now studied if stimulation of HEK cells has an effect on the reporter activity of these constructs. For this, construct −798/+89 was transfected into HEK cells, together with either the GC(−909/−908) or the TT(−909/−908) polymorphism, and the cells were stimulated with serum or angiotensin II (FIG. 6). […] In order to verify if this regulation also occurs in vivo, Gαq expression was analyzed on mRNA level by real time-PCR.

human adipocytes = test: Inhibition of isoprenaline-induced lipolysis (glycerol release) in human adipocyte cultures; format: cell-based; details: human adipocytes ex vivo, by GC(-909/-908)TT genotype
Text: The inhibiting effect of insulin on lipolysis was studied in human adipocyte cultures. For this, lipolysis was induced ex vivo in human adipocytes by isoprenaline, and the inhibiting effect of insulin was studied by adding insulin to the cultures. Lipolysis was quantified by glycerol release (Hauner et al., 2002). […] This coincides with the observation of an increased gene expression of Gq in this genotype.

Compound | reduction of skin blood circulation (skin blood circulation) | promoter activity (secreted alkaline phosphatase), GC genotype compared to TT genotype (GNAQ promoter) | inhibiting effect on isoprenaline-induced lipolysis (glycerol release) (human adipocytes)
CC[C@H](C)[C@H](NC(=O)[C@H](CC(=O)O)NC(=O)[C@H](CC(C)C)NC(=O)[C@H](Cc1c[nH]cn1)NC(=O)[C@@H]1CSSC[C@H](N)C(=O)N[C@@H](CO)C(=O)N[C@H]2CSSC[C@H](NC(=O)[C@H](CCC(=O)O)NC(=O)[C@H](CCCCN)NC(=O)[C@H](CC(=O)O)NC(=O)[C@H](CCSC)NC(=O)[C@H](CC(C)C)NC(=O)[C@H](CO)NC(=O)[C@H](CO)NC2=O)C(=O)N[C@@H](C(C)C)C(=O)N[C@@H](Cc2ccc(O)cc2)C(=O)N[C@@H](Cc2ccccc2)C(=O)N1)C(=O)N[C@H](C(=O)N[C@@H](Cc1c[nH]c2ccccc12)C(=O)O)[C@@H](C)CC [endothelin] | reduction of skin blood circulation is highest for the GC/GC genotype |  | 
NC[C@H](O)c1ccc(O)c(O)c1 [noradrenaline] | reduction of skin blood circulation is highest for the GC/GC genotype |  | 
angiotensin II (DRVYIHPF; Angiotensin-2; UniProt P01019 25-32, looked up) [hormone, vasoconstrictor] | reduction of skin blood circulation is highest for the GC/GC genotype | two to four times increased promoter activity compared to the TT genotype | 
insulin |  |  | inhibiting insulin effect was strongest with adipocytes from individuals with GCGC genotype

— US20080020385A1, “Use Of A Genetic Modification In The Human Gnaq Gene For Predicting Risk Of Disease, The Course Of Disease, And Reaction To Treatments” (priority 2004, published 2008)
